Test results taken from US20130190345A1, “MATRINIC ACID/MATRINE DERIVATIVES AND PREPARATION METHODS AND USES THEREOF” (priority 2010, published 2013).
≈ marks a conversion by molar mass, not a printed value.

Tests used:
Format in all cases: cell-based
[1] = test system: 2.2.15 cells; test: Drug TC50 by MTT detection; settings: Reed-Muench
Method: 2.2.15 cells (all cells were purchased from Vertex Pharmaceutical Co., USA) in exponential growth phase were inoculated on 96-well culture plate, 2×10^5 cells/well, added with culture media containing PFA diluted in different concentration rates, 3 wells for each diluted concentration, placed in 37° C. CO2—containing incubator and cultivated for 48 h; the supernatant was discarded, 100 μl of MTT (0.5 mg/ml) in culture medium was added, cultivation was continuously performed at 37° C. for 4 h; each well was added to 100 μl of 50% DMF-20% SDS destaining solution, stood at 37° C. overnight; ELISA was used to measure optical density at wavelength of 570 nm (0D570).
In each experiment, 3 cell control wells and 3 blank controls well were set, the results were used in formula, (cell control OD570-drug-medicated cell OD570)/cell control OD570, to calculate cell death rate (%), and Reed-Muench method was used to calculate half toxic concentration TC50.

[2] = test system: HCV; test: Inhibition effects of compounds on HCV in Huh7.5 cultured cell after HCV infection; settings: for EC50 (half effective concentration): virus not given, stands beside HCV inhibition rate; for anti-HCV activity (HCV nucleoprotein and Hsc70 protein levels): HCV-infected Huh7.5 cells, 200 μg/mL, Western blotting (FIG. 7B)
Method: 1×10^5/ml Huh7.5 cells (purchased from Vertex Pharmaceutical Co., USA) were inoculated in an amount of 0.1 ml on 96-well culture plate, placed in an incubator with 37° C., 5% CO2 content and saturation humidity, and cultured for 24 h, HCV virus in 45 IU/cell was used to infect Huh7.5, different drug solutions (DM122) formulated with culture medium were added, and cell control and HCV infection control were set. Cultivation was continuously performed in the incubator with 37° C., 5% CO2 content and saturation humidity for 72 h, kit for RNA extraction was used to extract intracellular RNA, one-step qRT-PCR was used to determine intracellular contents of HCV and GAPDH RNA, and the inhibition effects of drug on HCV infection was analyzed. […] In comparison with the virus control group, the inhibition effects on HCV infection upon action of different drugs were analyzed. […] This experiment was repeated for 3 times, * indicated […] in comparison with control, ** indicated p<0.01 in comparison with control.

[3] = test system: Hsc70; test: Detection of Hsc70 gene expression level upon action of compound on 2.2.15 cells (real-time fluorescent quantified PCR); design: Hsc70 mRNA / Hsc70 down-regulation rate (%): unit not given here; settings: for Hsc70 inhibition rate (down-regulation of Hsc70 expression activity, expressed in relative OMT ratio): relative to OMT (= 1); for Hsc70 down-regulation rate (%): single value, concentration not given, values coincide with Table 1 relative OMT ratios
Method: 2.2.15 cells (purchased from Vertex Pharmaceutical Co., USA) in a number of 1×10^6 were inocubated to 6-well plate, cultured in a culture medium containing 10% fetal calf serum for 24 hr, the original culture medium was discarded, replaced with a culutre medium containing 400 μg/ml OMTR, which was used as control. Compounds were firstly dissolved in MEM to form 20 mg/ml mother liquid, which was diluted with culture medium when used and then applied to cells. The compounds of Examples 1-114 were separately used for treatment for 12, 24, 36 hr, then cells were harvested for extraction of RNA and DNA, then the changes of Hsc70 mRNA and HBV DNA were detected by real-time fluorescent quantified PCR.

[4] = test system: Hsc70; test: Inhibition effects of compound on Hsc70 in Huh7.5 cultured cell (qRT-PCR, Western blotting); design: key to Hsc70 down-regulation rate (%): “—” represents no significant inhibition rate
Method: 2×10^5/ml Huh7.5 cells (purchased from Vertex Pharmaceutical Co., USA) were inoculated in an amount of 3 ml on 6-well culture plate, placed in an incubator with 37° C., 5% CO2 content, saturation humidity, and cultured for 24 h, added with different drug solutions (DM122) formulated with culture medium, and cell control was set. Cultivation was continuously performed in the incubator with 37° C., 5% CO2 content, saturation humidity for 24 h, a kit for RNA extraction was used to extract intracellular RNA from the cells, and one-step qRT-PCR was used to determine intracellular contents of Hsc70 and GAPDHRNA. After the cultivation of cells was performed for 48 h, the cells were digested and harvested, then the cells were split with CytoBuster™ Protein Extraction Buffer that contained many kinds of protease inhibitors, total intracellular proteins were extracted, and Western blotting was used to analyze the contents of Hsc70 and GAPDH proteins. In comparison with the cell control, the inhibition effects on Hsc70 upon action of different drugs were analyzed.

Row | Molecule | CC50 (concentration to cause poisoning in half cells) [1] [µg/mL] | EC50 (half effective concentration) [2] [µg/mL] | Hsc70 inhibition rate (down-regulation of Hsc70 expression activity, expressed in relative OMT ratio) ([3]; 2.2.15 cells) | other results
1 | N#Cc1ccc(C(=O)N2CC3CCCN4CCCC(C34)C2CCCC(=O)O)cc1 (stereo not shown) [DM-152, N-(4-cyanobenzoyl) matrinic acid] | >1000 | 125.65 (≈ 318 µM) |  | 
2 | Cc1ccc([N+](=O)[O-])cc1C(=O)N1C[C@@H]2CCCN3CCC[C@@H]([C@H]23)[C@H]1CCCC(=O)O [DM-131, N-(2-methyl-5-nitrobenzoyl) matrinic acid] | >1000 | 89.31 (≈ 208 µM) | −0.86 | Hsc70 down-regulation rate (%) [3]: −0.86
3 | CC(Cl)C(=O)OC1CC2C3CCCN4CCCC(CN2C(=O)C1O)C34 (stereo not shown) [Compound 9g, 14-hydroxyl-13-2-chloropropionyloxy matrine] |  |  |  | Hsc70 mRNA ([3]; 2.2.15 cells, down-regulation of liver cell Hsc70 gene): 48.6 ± 0.11; anti-HCV activity (HCV nucleoprotein and Hsc70 protein levels) [2]: significant activity on anti-HCV
4 | N#Cc1cccc(S(=O)(=O)N2CC3CCCN4CCCC(C34)C2CC=CC(=O)O)c1 (stereo not shown) [SC-89b, N-(m-cyanobenzenesulfonyl) sophocarpinic acid] | 123.08 (≈ 287 µM) | 3.98 (≈ 9.27 µM) |  | 
5 | O=C(O)C=CCC1C2CCCN3CCCC(CN1S(=O)(=O)c1ccc(C(F)(F)F)cc1)C23 (stereo not shown) [SC-84a, N-(p-trifluoromethylbenzene sulfonyl) sophocarpinic acid] | 530.07 (≈ 1120 µM) | 7.54 (≈ 16 µM) |  | 
6 | O=C(O)CCCC1C2CCCN3CCCC(CN1Cc1ccc(Cl)cc1)C23 (stereo not shown) [DM-126, N-(4-chlorobenzyl) matrinic acid] | >1000 | 21.11 (≈ 54 µM) | 0.62 | Hsc70 down-regulation rate (%) [3]: 0.62
7 | O=C(O)CCCC1C2CCCN3CCCC(CN1Cc1cccc(Cl)c1Cl)C23 (stereo not shown) [DM-129, N-(2,3-dichlorobenzyl) matrinic acid] | 245.5 (≈ 577 µM) | 192.02 (≈ 451 µM) | 0.27 | Hsc70 down-regulation rate (%) [3]: 0.27
8 | COc1ccc(C(=O)N2CC3CCCN4CCCC(C34)C2CCCC(=O)O)cc1 (stereo not shown) [DM-151, N-(4-methoxybenzoyl) matrinic acid] |  |  |  | Hsc70 down-regulation rate (%) ([4]; 200 ug/ml (upper data)): —; Hsc70 down-regulation rate (%) ([4]; 400 ug/ml (lower data)): 11.5 ± 2.4%; HCV inhibition rate (%) ([2]; 200 ug/ml (upper data)): 20.5 ± 3.2%; HCV inhibition rate (%) ([2]; 400 ug/ml (lower data)): 53.4 ± 5.6%
9 | O=C(O)CCCC1C2CCCN3CCCC(CN1Cc1ccccn1)C23 (stereo not shown) [DM-143, N-(pyridin-2-yl) methyl matrinic acid] | 374.5 (≈ 1050 µM) | 12.46 (≈ 34.9 µM) | 1.1 | Hsc70 down-regulation rate (%) [3]: 1.1
10 | O=C(O)CCCC1C2CCCN3CCCC(CN1Cc1ccccc1Cl)C23 (stereo not shown) [DM-124, N-(2-chlorobenzyl) matrinic acid] | 504.6 (≈ 1290 µM) | 68.27 (≈ 175 µM) | 0.32 | Hsc70 down-regulation rate (%) [3]: 0.32
11 | O=C(O)CCCC1C2CCCN3CCCC(CN1C(=O)c1ccc(F)cc1)C23 (stereo not shown) [DM-154, N-(4-fluorobenzoyl) matrinic acid] | >1000 | >333.33 |  | 
12 | O=C(O)CCC[C@@H]1[C@H]2CCCN3CCC[C@@H](CN1C(=O)c1cccc([N+](=O)[O-])c1)[C@@H]23 [DM-121, N-(3-nitrobenzoyl) matrinic acid] |  |  | 0.23 | Hsc70 down-regulation rate (%) ([4]; 200 ug/ml (upper data)): —; Hsc70 down-regulation rate (%) ([4]; 400 ug/ml (lower data)): —; HCV inhibition rate (%) ([2]; 400 ug/ml (lower data)): 14.9 ± 9.0%
13 | O=C(O)CCCC1C2CCCN3CCCC(CN1Cc1cccc4ccccc14)C23 (stereo not shown) [DM-148, N-(naphthyl-1-yl) methyl matrinic acid] | 529.86 (≈ 1300 µM) | >333.3 |  | 
14 | α-interferon |  |  |  | anti-HCV activity (HCV nucleoprotein and Hsc70 protein levels) [2]: capable of inhibiting HCV replication
15 | O=C(O)CCCC1C2CCCN3CCCC(CN1Cc1ccncc1)C23 (stereo not shown) [DM-145, N-(pyridin-4-yl)methyl matrinic acid] | >1000 | 117.2 (≈ 328 µM) |  | 
16 | O=C(O)CCCC1C2CCCN3CCCC(CN1Cc1cccnc1)C23 (stereo not shown) [DM-144, N-(pyridin-3-yl) methyl matrinic acid] | >1000 | 31.8 (≈ 89 µM) |  | 
17 | COc1ccc(C(=O)N2CC3CCCN4CCCC(C34)C2CCCC(=O)O)cc1 [Compound L11, (5R)—N-(p-methoxybenzoyl)matrinic acid] |  |  |  | Hsc70 down-regulation rate (%) ([4]; 200 ug/ml (upper data)): 31.4 ± 12.2%; Hsc70 down-regulation rate (%) ([4]; 400 ug/ml (lower data)): —; HCV inhibition rate (%) ([2]; 200 ug/ml (upper data)): 46.7 ± 12.7%; HCV inhibition rate (%) ([2]; 400 ug/ml (lower data)): 61.6 ± 3.9%
18 | Cc1ccc(C(=O)N2C[C@@H]3CCCN4CCC[C@@H]([C@H]34)[C@H]2CCCC(=O)O)cc1 [DM-153, N-(4-methylbenzoyl) matrinic acid] |  |  |  | Hsc70 down-regulation rate (%) ([4]; 200 ug/ml (upper data)): 38.6 ± 15.8%; Hsc70 down-regulation rate (%) ([4]; 400 ug/ml (lower data)): 32.6 ± 14. %; HCV inhibition rate (%) ([2]; 200 ug/ml (upper data)): 47.8 ± 9.4%; HCV inhibition rate (%) ([2]; 400 ug/ml (lower data)): 29.2 ± 29.5%
19 | Cc1ccc([N+](=O)[O-])cc1C(=O)N1C[C@H]2CCCN3CCC[C@@H]([C@H]23)[C@H]1CCCC(=O)O [Compound L2, (5R)—N-(2-methyl-5-nitrobenzoyl)matrinic acid] |  |  |  | Hsc70 down-regulation rate (%) ([4]; 200 ug/ml (upper data)): 76.6 ± 2.5%; Hsc70 down-regulation rate (%) ([4]; 400 ug/ml (lower data)): 32.7 ± 5.0%; HCV inhibition rate (%) ([2]; 200 ug/ml (upper data)): 27.9 ± 16.3%; HCV inhibition rate (%) ([2]; 400 ug/ml (lower data)): 5.3 ± 5.1%
20 | O=C(O)CCC[C@@H]1[C@H]2CCCN3CCC[C@@H](CN1C(=O)c1ccc(C(F)(F)F)cc1)[C@@H]23 [DM-155, N-(4-trifluoromethylbenzoyl) matrinic acid] | >1000 | >333.33 |  | 
21 | O=C(O)CCCC1C2CCCN3CCCC(CN1C(=O)c1cccc([N+](=O)[O-])c1)C23 [Compound L9, (5R)—N-(3-nitrobenzoyl)matrinic acid] |  |  |  | Hsc70 down-regulation rate (%) ([4]; 200 ug/ml (upper data)): 20.1 ± 11.1%; Hsc70 down-regulation rate (%) ([4]; 400 ug/ml (lower data)): —; HCV inhibition rate (%) ([2]; 200 ug/ml (upper data)): 62.5 ± 0.3%; HCV inhibition rate (%) ([2]; 400 ug/ml (lower data)): 68.9 ± 3.8%
22 | O=C(O)CCCC1C2CCC[N+]3([O-])CCCC(CN1Cc1ccccc1)C23 (stereo not shown) [DM-1081, N-benzyl oxymatrinic acid] |  |  | 1.26 | 
